Experimental data: PubChem BioAssay (NCI)
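GI50 marks 50% less growth. TGI: total growth inhibition.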

How the values were obtained:
Assay in all cases: NCI anticancer screen, dose series, 384-well format
COLO 205 colon = system: COLO 205 colon
DU-145 prostate = system: DU-145 prostate
HOP-92 NSCLC = system: HOP-92 NSCLC
HS 578T breast = system: HS 578T breast
IGROV1 ovarian = system: IGROV1 ovarian
K-562 leukemia = system: K-562 leukemia
MALME-3M melanoma = system: MALME-3M melanoma
MCF7 breast = system: MCF7 breast
MDA-MB-468 breast = system: MDA-MB-468 breast
PC-3 prostate = system: PC-3 prostate
RPMI-8226 leukemia = system: RPMI-8226 leukemia
SF-539 CNS = system: SF-539 CNS
SNB-19 CNS = system: SNB-19 CNS

Row | Structure (SMILES) | GI50 (COLO 205 colon) [µM] | TGI (COLO 205 colon) [µM] | GI50 (DU-145 prostate) [µM] | TGI (DU-145 prostate) [µM] | GI50 (HOP-92 NSCLC) [µM] | TGI (HOP-92 NSCLC) [µM] | GI50 (HS 578T breast) [µM] | TGI (HS 578T breast) [µM] | GI50 (IGROV1 ovarian) [µM] | TGI (IGROV1 ovarian) [µM] | GI50 (K-562 leukemia) [µM] | TGI (K-562 leukemia) [µM] | GI50 (MALME-3M melanoma) [µM] | TGI (MALME-3M melanoma) [µM] | GI50 (MCF7 breast) [µM] | TGI (MCF7 breast) [µM] | GI50 (MDA-MB-468 breast) [µM] | TGI (MDA-MB-468 breast) [µM] | GI50 (PC-3 prostate) [µM] | TGI (PC-3 prostate) [µM] | other results
1 | Cc1cc(Nc2ccc(NC(=O)c3ccc(Nc4ccnc5ccccc45)cc3)cc2)nc(N)n1 | 0.206 | 0.352 | 1.6 | 2.98 | 0.539 | 1.52 | 1.05 | 2.24 | 4.97 | 9.37 | 0.324 | 0.921 | 1 | 2.23 | 0.254 | 0.618 | 0.196 | 0.339 | 0.894 | 2.25 | GI50 (RPMI-8226 leukemia): 3.11 µM; TGI (RPMI-8226 leukemia): 7.87 µM; GI50 (SF-539 CNS): 0.552 µM; TGI (SF-539 CNS): 1.02 µM; GI50 (SNB-19 CNS): 1.24 µM; TGI (SNB-19 CNS): 2.51 µM
2 | CNCc1ccccc1-c1csc([C@@H](C)Nc2nc(C)nc3cc(OC)c(OC)cc23)c1 | 1.59 | 2.94 | 1.71 | 3.2 | 0.171 | 1.29 | 0.302 | 2.11 | 1.31 | 2.59 | 0.064 | 0.723 | 1.56 | 2.9 | 1.29 | 2.57 | 0.287 | 1.56 | 1.53 | 2.97 | GI50 (RPMI-8226 leukemia): 0.643 µM; TGI (RPMI-8226 leukemia): 1.98 µM; GI50 (SF-539 CNS): 1.14 µM; TGI (SF-539 CNS): 2.36 µM; GI50 (SNB-19 CNS): 1.45 µM; TGI (SNB-19 CNS): 2.77 µM
